The values below come from patent publication US5096896A, “Sustained release compositions” (National Research Development Corporation, priority 1981, dated 1992).

Entries after “also recorded” stand apart in the source; their conditions may differ.

The test system of data set [1] is P. berghei sulphonamide resistant ORA strain. The data set can be described thus: Experiment 4: protection against sulphonamide resistant ORA strain P. berghei. The format is in vivo, Plasmodium berghei in mice. To be noted: 1 x 1000 mg/kg, 0 (day 42 of exp). The procedure:
(§1) This experiment was designed to ascertain whether the sustained release composition of this invention could be utilised for the release of a mixture of active substances from a single depot. Preparations of 30% sulphadiazine + 10% pyrimethamine base in S2 (a new batch prepared as in Example 6) were blended and injected sc in 50 mg aliquots into mice in the suprascapular position. Additional groups of mice received S2 alone or no drug. Three groups of mice with S2 + drugs and 1 group with S2 alone were prepared for challenge on each of days 28, 42, 56 and 70. At each time interval one group each of the S2 + drug mice were challenged by the inoculation iv of 1×10^6 mouse erythrocytes infected with the drug sensitive N strain of P. berghei, the pyrimethamine resistant PYR strain and the sulphonamide resistant ORA strain, respectively. The group of mice with S2 alone was challenged with N strain parasites. Additional groups of control mice without oil were dosed with pyrimethamine (60 mg/kg) and orisulf (1000 mg/kg) immediately post-infection.

A further data set concerns mice. In words: Toxicity of the derivative oils, alone or with drug, in mice. The format is in vivo. From the text:
(§2) An extensive toxicological investigation of the oils, either alone or in combination with antimalarials, has not been undertaken. The observations reported here are based on the behaviour and condition of mice immediately following injection of test substances, and on the development of any obvious gross pathology subsequent to drugging. All animals in experimental groups were examined at intervals for evidence of ulceration or other tissue reactions at the site of injection and mice were killed at intervals and examined for residual oil deposits and evidence of adverse tissue reactions to such deposits.

For data set [2], the system named is P. berghei pyrimethamine resistant PYR strain. The data set can be described thus: Experiment 4: protection against pyrimethamine resistant PYR strain P. berghei. It is filed as in vivo, Plasmodium berghei in mice. To be noted: 1 x 60 mg/kg, 0 (day 42 of exp). The procedure: as §1
The test system of data set [3] is P. berghei drug sensitive N strain. The data set can be described thus: Experiment 4: protection against drug sensitive N strain P. berghei. The format is in vivo, Plasmodium berghei in mice. The procedure: as §1
Data set [4] deals with Plasmodium berghei (N strain). In words: Experiment 2: P. berghei challenge of mice after sc injection of oil/pyrimethamine mixtures. It is filed as in vivo, Plasmodium berghei in mice (Tuck TFW). The procedure: This experiment was designed to extend the observation presented above in Experiment 1. All basic experimental procedures, including the preparation of 30% w/w dispersions of pyrimethamine base in S1, S2 and S3, were performed as described above. The primary objective was to obtain confirmation of the results obtained above whilst extending the period of observation. […] Twenty-seven groups of mice, with 5 mice in each, were again selected at random from pooled male white mice (Tuck TFW) of 20 gm body weight. Individual groups received 50 mg injections sc of S1 + pyrimethamine, S2 + pyrimethamine, S3 + pyrimethamine or S2 above. The distribution of groups is shown below:
At intervals of 14 days one group of mice from each of the different classes of inocula were infected by the intravenous injection of 1×10^6 mouse erythrocytes parasitised with P. berghei (N strain).
The examination of mice for P. berghei infection was performed as described above in Experiment 1.

A further data set relates to mice (site of injection). In words: Tissue reaction and residual oil at the site of injection. It is filed as in vivo. The procedure: (§3) Subcutaneous injections were administered in the mid dorsal, suprascapular position. Cages were examined daily and all deaths recorded. Mice were examined for evidence of local irritation at the site of injection.
as §2

In another data set the test system is P. berghei. In words: Experiment 5: duration of protection by tetracycline in derivative oils. The format is in vivo, Plasmodium berghei in mice. To be noted: 30% tetracycline hydrochloride in oil, 100 mg sc. The procedure:
This experiment (which is incomplete) was designed to ascertain the suitability of the derivatives of this invention in the administration of antibiotics. All basis experimental procedures were as described above except that the mice received 100 mg of the 30% mixtures of active substance (tetracycline as free base, or tetracycline as hydrochloride).

Data set [5] concerns Plasmodium berghei (N strain). In words: Experiment 1: P. berghei challenge of mice after sc injection of derivative oil with or without pyrimethamine. It is filed as in vivo, Plasmodium berghei in mice (Tuck TFW male white). The procedure: In the following experiments several derivative oils of this invention, prepared as aforesaid, were evaluated and compared for suitability as matrixes for active substances in the preparation of injectable depot antimalarial systems.
Depot preparations were made up by adding, by hand mixing, powdered active substance to the respective oil at 30% w/w.
Twenty-eight groups of mice, 5 mice per group, were selected at random from pooled Tuck TFW male white mice of approximately body weight 20 g. The mice were provided with food and water ad libitum. Care was taken that the diet contained adequate levels of p-aminobenzoic acid and that the mouse stock was free from infection with Eperythrozoon coccoides.
On day 0 the groups of mice were processed as follows:
as §3
On day 7, groups (cages) 1 to 7 inclusive were infected with Plasmodium berghei (N strain). 0.2 ml of an inoculum containing 1×10^6 infected mouse erythrocytes was injected into the tail vein of each recipient mouse. The presence or absence of patent malarial infection was determined by blood film examination three days post infection and at intervals thereafter. Standard procedures were employed in the examination of Giemsa stained blood films and in the determination of parasitaemia levels. The method of infection and the techniques for assessment of parasitaemia were as described previously. Some groups in which no parasitaemia developed after the initial inoculation with P. berghei were subsequently reinfected on the days illustrated in Table 5.

As to `Nc1ccc(S(=O)(=O)Nc2ccnn2-c2ccccc2)cc1` [orisulf], the “Mice with patent parasitaemia post-challenge” value in data set [1] (day 3), in data set [1] (day 7) and in data set [1] (day 10) was 5/5 throughout.
Take `CCc1nc(N)nc(N)c1-c1ccc(Cl)cc1` [pyr, pyrimethamine]: the “Mice dead at 24 hours” value in the data set with mice (mouse, in vivo) is listed as “One of 5 mice”. The entries for the “Mice with patent parasitaemia post-challenge” value in data set [2] (day 3), in data set [2] (day 7) and in data set [2] (day 10) were 5/5, 4/4 and 4/4, respectively.
As for `CCc1nc(N)nc(N)c1-c1ccc(Cl)cc1` [pyrimethamine isethionate], the Mortality after dosing entry in the data set on mice (mouse, in vivo) is recorded as “all mice died within 1 hour of dosing”. Besides, the Distress after dosing entry in the data set with mice (sc, equivalent to 750 mg/kg and 1500 mg/kg base) was “induced distress in animals within minutes”.
For `CCOC1CCCC(COC(=O)C2CCCC(OCC)O2)O1` (centres unmarked) [Example S2], the “Mice with patent parasitaemia post-challenge” value in data set [3] (challenge day 28, day 3) is 5/5; in data set [3] (challenge day 28, day 7), 5/5; in data set [3] (challenge day 42, day 3), 5/5; in data set [3] (challenge day 42, day 7), 2/2; in data set [3] (challenge day 56, day 3), 5/5; in data set [3] (challenge day 56, day 7), 5/5. Moreover, the “Duration of antimalarial protection” value in data set [4] (50 mg sc, 30% w/w pyrimethamine base) is “not less than 12 weeks”. For the same compound, the “Parasitaemia on days post infection” value is 41% in data set [4] (challenge day 14, day 3/4, a: only one mouse surviving); 80% in data set [4] (challenge day 14, day 7/8, a: only one mouse surviving); 26% in data set [4] (challenge day 28, day 3/4); 50% in data set [4] (challenge day 28, day 7/8); 3.7% in data set [4] (challenge day 42, day 3/4); 32% in data set [4] (challenge day 42, day 7/8). The “Parasitaemia on days post infection” value is reported as 26% in data set [4] (challenge day 56, day 3/4); 70% in data set [4] (challenge day 56, day 7/8); 78% in data set [4] (challenge day 56, day 10); 23% in data set [4] (challenge day 70, day 3/4); 74% in data set [4] (challenge day 70, day 7/8); 80% in data set [4] (challenge day 70, day 10, a: only one mouse surviving). The “Parasitaemia on days post infection” value turned out to be 29.6% in data set [4] (challenge day 84, day 3/4); 70% in data set [4] (challenge day 84, day 7/8, c: one mouse of 5 patent); 80% in data set [4] (challenge day 84, day 10). Further, the “Residual injected oil at injection site” value in the data set on mice (site of injection) (54 days after injection) was “Residues of the injected material were found in each of the 5 mice; also recorded: Somewhat greater quantities, albeit small amounts”. The “Persistence of oil in vivo” value in the data set with mice (site of injection) (in words) is on record as “stable for a surprisingly long time in vivo”. Also, the “Tissue reaction to oil at injection site” value with mice (site of injection) (oil alone, autopsy at 54 days) was “No evidence of adverse tissue reaction; also recorded: no marked fibrosis or vascularisation of the oil depot site”. The “Duration of protection (days), tetracycline HCl” value in the data set with P. berghei was under 7 days. Further, the “Parasitaemia (%) on days post infection” value in data set [5] (infected 7 days after drugging, day 3, 50 mg sc) was 11.2%; in data set [5] (infected 7 days after drugging, day 10, * estimated, 1 only survivor), about 80%; in data set [5] (infected 21 days after drugging, day 3, 50 mg sc), 24%; in data set [5] (infected 21 days after drugging, day 10, * estimated, 1 only survivor), about 80%; in data set [5] (infected 32 days after drugging, day 3), 11.6%; in data set [5] (infected 32 days after drugging, day 7), 56%. Also, the “Parasitaemia (%) on days post infection” value in data set [5] (infected days 45, 48 after drugging, day 3 (first value)) amounted to 0%; in data set [5] (infected days 45, 48 after drugging, day 3 (second value, after the slash)), 8.8%; in data set [5] (infected days 45, 48 after drugging, day 7), 16.4%; in data set [5] (infected days 45, 48 after drugging, day 10), 80%. In data set [5] (infected day 45, groups 24 and 25), the “Malaria parasites in blood on day 3 post-infection” value is “no malaria parasite was observed”. Also, in data set [5] (oil with pyrimethamine, 50 mg sc), the “Minimum period of protection of mice with pyrimethamine” value is listed as at least 9 weeks.
